Results taken from patent US5597798A, “Taxol and epidermal growth factor used to enhance treatment of ovarian cancer” (The Regents of the University of California, priority 1994, dated 1997).
Read-outs that look alike come from different tables or passages of the source.

What was measured:
[1] = tested on: 2008 human ovarian carcinoma cells; experiment: Colony forming assay, effect of EGF on sensitivity to cytotoxic agents; format: cell-based
[2] = tested on: cellular cAMP; experiment: Determination of cellular cAMP content; format: cell-based; conditions: for cAMP level, 10 min. mean: 10 min treatment; for cAMP level, 10 min. mean / cAMP level, 60 min. mean: means of 6 experiments; for cAMP level, 60 min. mean: 60 min treatment
[3] = tested on: human KB carcinoma cells; conditions: TPA treatment; cited from earlier work
[4] = tested on: 2008 cells; experiment: Colony forming (colonogenic) assay, effect of TPA, phorbol and staurosporine on DDP sensitivity
[5] = tested on: 2008/C13*5 cells; experiment: Colonogenic assay, effect of TPA on DDP sensitivity of DDP-resistant cells; format: cell-based, human; conditions: TPA and DDP concurrently for 1 h
Source text: The following cell lines were used in these studies: 2008 human ovarian carcinoma (Disaia, et al., Am. J. Obstet. Gynecol. 114:978 (1972)), COLO 316 human ovarian carcinoma (Woods et al., Cancer Res. 39:4449 (1979)), a DDP resistant variant 2008/C13*, derived from the parent 2008 cell line (Andrews, et al., Cancer Res. 45:6250 (1985)), A549 non-small cell lung cancer (Lieber et al., Int. J. Cancer 17:62 (1976)), NCI-H520 squamous cell lung cancer (Brower et al., Cancer Res. 46: 798 (1986)), NCI-H596 adenosquamous lung cancer (Banks-Schlegel et al., Cancer Res. 45: 1187 (1985)), UMC 31 small cell lung cancer cells (Graziano et al., Genes, Chromosomes and Cancer 3: 283 (1991)), GLC4 small cell lung cancer cells (Zijlstra et al., Cancer Res. 47: 1780 (1987)), UMCC10b head and neck cancer cells (Krause et al., Arch. Otolayngol. 107: 703 (1981)), 5637 bladder cancer cells (Fogh et al., J. Natl. Cancer Inst. 58: 209 (1977)), MIA PaCa-2 pancreatic cancer cells (Yunis et al., Int. […]
Colony forming assays were used to assess the effect of each drug on the sensitivity of various tumor cell lines to cytotoxic agents (Andrews, et al., Chem.-Biol. Interact 65:51-58 (1988)). […] Colonies of over 60 cells were counted macroscopically.
The 2008/C13*5 cell line is 8-10-fold resistant to DDP. […] Drug cytotoxicity was determined by colonogenic assay on plastic dishes. […]

[6] = Colony formation, TPA sensitization to DDP with cycloheximide (CHM); format: cell-based; conditions: 2 μM DDP with 10^-7 M TPA 1 h
[7] = tested on: 2008 cells; experiment: Cellular accumulation of [195mPt]DDP; format: cell-based, human; conditions: concurrent 60 min
Experimental: Cell-associated ^195m Pt was determined by as a measure of DDP accumulation. For DDP accumulation studies, subconfluent monolayers were treated with 37° C. RPMI 1640 medium containing 20 μM [^195m Pt]-DDD. The dishes were immediately returned to the incubater. After 1 h incubation, the medium was aspirated, the cells were washed rapidly with 4° C. PBS 4 times. Two ml of 1N NaOH was added and the cells allowed to digest overnight. A forty μl aliquot was used for determination of protein content by the method of Bradford (Bradford, Anal. Biochem. 72:248-254 (1976)), and the remaining […] was counted in glass tubes on a Trak 1191 gamma counter (Tracer Analytic, EIK Grove Village, Ill.). Columns represent the mean values of 3 experiments performed with duplicate cultures. The bars represent the standard deviation.
Cultured 2008 cells were treated concurrently with [^195m Pt]DDP and TPA for 60 min. A vehicle control consisting of an appropriate dilution of acetone was run concurrently. […] Cells treated with medium alone contained 140±13 pmol/mg of protein, whereas those treated with the acetone control contained 141±7 pmol/mg of protein, and those treated with TPA contained 143±21 pmol/mg of protein.

[8] = tested on: C127 mouse fibroblasts transfected with the human EGF receptor gene; experiment: Tetrazolium (MTT) growth rate assay, DDP sensitivity; format: cell-based
Experimental: Expression of the transferrin receptor gene is normally under the control of the transferrin […], and is regulated by iron (Owen and Kuhn, EMBO J. 6:1287 (1987)). Incubation with the iron chelator desferrioxamine induces expression of the transferrin receptor gene (Bridges and Cudkowicz, J. Biol. Chem. 259:12970 (1984)). […] Closed squares, transfected […] mouse fibroblasts pretreated with desferrioxamine; open squares, untreated cells. […] Louis, Mo.) was prepared at 1 mg/ml in DME media and on day 7, 50 μl are added to the microculture wells. After a 4 h incubation at 37° C., all the media was removed from each well, and 150 μl of 100% DMSO (dimethyl sulfoxide) was added to solubilize the MTT-formazan product. After thorough mixing, absorbance at 540 nm was measured with a Molecular Devices Vmax Kinetic microplate reader.

[9] = tested on: human EGF receptor; experiment: Expression of human EGF receptor in transfected C127 cells (monoclonal antibody 528 staining); format: cell-based; conditions: Desferrioxamine 10 μM for 60 hs
[10] = EGF and the cytotoxic agent concurrently for 1 h
[11] = Homo sapiens, Ovarian carcinoma cell, 1 h, read-out: IC50 in absence of EGF
[12] = mean ± SD of at least 3 experiments
[13] = read-out: IC50 in presence of EGF, EGF and the cytotoxic agent concurrently for 1 h

Structure (SMILES): O=c1[nH]cc(F)c(=O)[nH]1 [5-fluorouracil]
- effect of EGF on sensitivity of 2008 cells to the agent (in words) [1, 10]: significant increase in sensitivity
- IC50 [1, 11]: 20 µM
- Dose modifying factor (ratio of the IC50 values in control and EGF-treated cells) [1, 12]: 1.8 ± 0.3
- IC50 [1, 13]: 11 µM

Structure (SMILES): C=C[C@@]1(C)CC(=O)[C@]2(O)[C@@]3(C)[C@@H](O)CCC(C)(C)[C@@H]3[C@H](O)[C@H](OC(C)=O)[C@@]2(C)O1 [Forskolin]
- increase in cAMP content [2]: 297 fold
- cAMP level, 10 min. mean [2]: 2135.0 pmol/mg protein
- cAMP level, 60 min. mean [2]: 6365.0 pmol/mg protein

Structure (SMILES): CCCCCCCCCCCCCC(=O)O[C@@H]1[C@@H](C)[C@@]2(O)[C@@H](C=C(CO)C[C@]3(O)C(=O)C(C)=C[C@@H]23)[C@H]2C(C)(C)[C@]12OC(C)=O [TPA]
- decrease in sensitivity to etoposide and vincristine [3]: 50%
- interaction between TPA and DDP, median effect analysis [4]: truly synergistic
- loss of TPA sensitization ([4]; 0.1 μM TPA 1 h, 2 μM DDP 1 h): largely disappeared by 7 h
- survival, % of control ([4]; 2 μM DDP plus 0.1 μM TPA): 38±16%
- survival normalized to 2 μM DDP alone = 100% ([4]; 2 μM DDP plus TPA, no staurosporine): 44%
- DDP sensitization after TPA pretreatment ([4]; 24-h exposure to 0.1 μM TPA followed by 1-h exposure to DDP): a similar degree of sensitization was observed
- increase in DDP sensitivity ([4]; TPA and DDP concurrently for 1 h): 2.5 fold
- toxicity of TPA by itself ([4]; concentrations): did not cause any toxicity by itself
- DDP sensitization under continuous exposure ([4]; continuous exposure to both TPA and DDP for the full period of colony formation): no change in DDP sensitivity was evident
- sensitization to DDP [5]: 2.6 fold
- survival, % of control (S.D.) ([6]; absence of CHM): 33±5%
- survival, % of controls (S.D.) ([6]; presence of CHM 5 μg/ml): 41±7%
- effect of TPA on cellular accumulation of [195mPt]DDP [7]: neither the acetone nor the TPA produced any effect on cellular accumulation
- cAMP level, 10 min. mean [2]: 2.7 pmol/mg protein
- cAMP level, % of the untreated control ([2]; 60 min): 38%
- cAMP level, % of the vehicle control ([2]; 60 min): 65%
- cAMP level, 60 min. mean [2]: 8.2 pmol/mg protein

Structure (SMILES): N.N.O=C([O-])C1(C(=O)[O-])CCC1.[Pt+2] [carboplatin]
- effect of EGF on sensitivity of 2008 cells to the agent (in words) [1, 10]: significant increase in sensitivity
- Dose modifying factor (ratio of the IC50 values in control and EGF-treated cells) [1, 12]: 1.8 ± 0.4
- IC50 ([1]; read-out: IC50 in absence of EGF, cytotoxic agent for 1 h, no EGF): 120 µM
- IC50 [1, 13]: 67 µM

Structure (SMILES): CC(=O)N(O)CCCCCNC(=O)CCC(=O)N(O)CCCCCNC(=O)CCC(=O)N(O)CCCCCN [desferrioxamine]
- modulation of DDP sensitivity in the absence of EGF ([8]; 10 μM desferrioxamine, no EGF): did not modulate the sensitivity of transfected C127 cells in the absence of EGF
- toxicity to transfected C127 mouse fibroblasts ([8]; 10 μM, prolonged incubation for 2 weeks): non-toxic
- increase in sensitivity to the cytotoxicity of DDP vs control cells ([8]; desferrioxamine treated cells, in the presence of 10 nM EGF): approximately 2 fold
- increase in number of human EGF receptors [9]: approximately 2 fold

Structure (SMILES): COc1cccc2c1C(=O)c1c(O)c3c(c(O)c1C2=O)C[C@@](O)(C(=O)CO)C[C@@H]3O[C@H]1C[C@H](N)[C@H](O)[C@H](C)O1 [doxorubicin]
- effect of EGF on sensitivity of 2008 cells to the agent (in words) [1, 10]: no significant effect
- IC50 [1, 11]: 1.5 µM
- Dose modifying factor (ratio of the IC50 values in control and EGF-treated cells) [1, 12]: 1.1 ± 0.2
- IC50 [1, 13]: 1.4 µM

Structure (SMILES): N[C@@H](Cc1ccc(N(CCCl)CCCl)cc1)C(=O)O [melphalan]
- Dose modifying factor (ratio of the IC50 values in control and EGF-treated cells) [1]: 1.4 ± 0.4
- effect of EGF on sensitivity of 2008 cells to the agent (in words) [1]: the effect did not reach the level of statistical significance
- IC50 [1, 11]: 12 µM
- IC50 ([1]; read-out: IC50 in presence of EGF): 9 µM

Structure (SMILES): CC1=C[C@H]2[C@@]3(O)[C@H](C)[C@@H](O)[C@]4(O)[C@H]([C@@H]3C=C(CO)C[C@]2(O)C1=O)C4(C)C [phorbol]
- effect of phorbol on DDP sensitivity ([4]; 10^7 M phorbol for 1-h with DDP): failed to enhance DDP sensitivity, and, in fact slightly reduced it

Structure (SMILES): CN[C@@H]1C[C@H]2O[C@@](C)([C@@H]1OC)n1c3ccccc3c3c4c(c5c6ccccc6n2c5c31)C(=O)NC4 [staurosporine]
- effect of staurosporine by itself on sensitivity to DDP ([4]; control experiments): did not enhance or inhibit sensitivity to DDP
- survival, % of that produced by DDP alone ([4]; staurosporine pretreatment 1 h, then DDP and TPA (all three agents)): 96%

Structure (SMILES): CC(=O)O[C@H]1C(=O)[C@@]2(C)[C@H]([C@H](OC(=O)c3ccccc3)[C@]3(O)C[C@H](OC(=O)[C@H](O)[C@@H](NC(=O)c4ccccc4)c4ccccc4)C(C)=C1C3(C)C)[C@]1(OC(C)=O)CO[C@@H]1C[C@@H]2O [taxol]
- effect of EGF on sensitivity of 2008 cells to the agent (in words) [1, 10]: significant increase in sensitivity
- IC50 [1, 11]: 0.01 µM
- IC50 ([1]; Homo sapiens, Ovarian carcinoma cell, 1 h, read-out: IC50 in presence of EGF): 0.007 µM
- Dose modifying factor (ratio of the IC50 values in control and EGF-treated cells) [1, 12]: 1.4 ± 0.1
